Where no end group is shown, it is not given here.
How the values were obtained:
[1] = tested on: P. falciparum 3D7 and PFD0495c-GFP clones; assay: Reversibility of treatment with PPMP after 24 hr; assay type: cell-based, Plasmodium falciparum
Protocol: Synchronized ring stage parasites at 5-10% pst were incubated with 5 uM PPMP for 24 hr (day 1). Infected erythrocytes were washed with RPMI 1640 three times to remove PPMP then put back into culture. Blood smears were made at days 0, 1, 2, and 3 and stained with Giemsa. Parasites were fed fresh media every 24 hr. Rings, trophozoites and schizonts were enumerated by a counter who was blinded to sample identity. Both PFD0495c-GFP clones responded to PPMP in the same manner as 3D7. […] When PPMP was washed out, all parasites continued the cell cycle and at day 2 matured to schizonts, which formed new rings by day 3.

[2] = tested on: P. falciparum ring stage parasites; assay: Quantitative RT-PCR of PFD0495c transcript after PPMP treatment; assay type: cell-based, Plasmodium falciparum; details: 5 μM PPMP, 12 and 24 hr of treatment
Protocol: Quantitative PCR was used to confirm the array results. Parasites were synchronized by successive rounds of percoll and sorbitol. Ring stage parasites were treated with either 5 μM dl-threo-PPMP or vehicle (ethanol=0.01%) for 3, 6, 12, and 24 h. RNA was isolated using Trizol (Invitrogen) and treated with DNAse (Promega) according the manufacturer's recommendations. Integrity of the RNA was confirmed with the 2100 Bioanalyzer (Agilent). First strand cDNA synthesis was initiated by priming 5 ug RNA with 40 ug/mL oligo(dT)12-18 at 65° C. for 5 min then incubating reaction with 0.5 mM dNTPs and 200 U SuperScript reverse transcriptase (Invitrogen) for 60 min at 42° C. The reaction was inactivated by heating to 70° C. for 15 min. […]
Amplification of P. falciparum 18S ribosomal RNA (GI 160642), an endogenous control, was done in parallel (forward 5′-ACAATTGGAGGGCAAGT-′3 (SEQ ID NO:39), reverse 5′-TTGGAGCTGGAATTACC-3′ (SEQ ID NO:40)) to standardize the amount of sample in each well. […] Relative quantification was performed using the comparative method, whereby the amount of PFD0495c was normalized to the endogenous control 18S rRNA. […]

[3] = tested on: P. falciparum 3D7 ring stage parasites; assay: Transcriptional response to PPMP treatment by microarrays; assay type: cell-based, Plasmodium falciparum; details: 5 μM dl-threo-PPMP, 24 hr, relative to control trophozoites
Protocol: Ring stage parasites were treated with either 5 μM dl-threo-PPMP or vehicle ([ethanol]f=0.01%) for 24 hr and were harvested for RNA isolation. Untreated ring stage parasites were also harvested. The experimental design served to compare PPMP— to either mock-treated or ring stage transcripts. RNA was isolated according to Invitrogen (Carlsbad, Calif.) protocols using Trizol. First strand cDNA synthesis and hybridizations were performed according to previous protocols^24. Microarray slides were scanned using GenePix 4000B Scanner and analyzed with GenePix Pro 4.1. The statistical program R with the add-in package SMA (http://www. followed by stat.berkeley.edu/%7Eterry/zarray/Software/smacode.html) was used to normalize data^25,26. Only high quality features and those with signal two standard deviations above background were analyzed, leaving 4580 elements from a total of 8088 oligos. Features with a log odds ratio above zero were considered.

[4] = tested on: P. falciparum 3D7 and PFD0495c-GFP clones; details: after 36 h of treatment, previous studies; cited from earlier work
[5] = tested on: P. falciparum infected erythrocytes expressing PfHRPII-GFP; assay: Endocytic lipid import with the lipid marker FM4-64; assay type: cell-based, Plasmodium falciparum; details: 5 μM PPMP, short-term (30 min)
Protocol: FM4-64 (N-(3-triethylammoniumpropyl)-4-(6-(4-(diethylamino)phenyl)hexatrienyl)pyridinium dibromide) is a fluorescent lipid marker that has been used to study endocytosis in eukaryotic cells^18. To visualize active uptake of FM4-64 from the erythrocyte plasma membrane during intraerythrocytic growth, trophozoite stage parasites expressing either PfHRPII-GFP or PFD0495c-GFP were incubated in the absence or presence of 5 μM dl-threo-PPMP for 30 min at 37° C. Infected erythrocytes were washed three times in PBS then stained with 16 μM FM4-64 for 30 min at 37° C. Nuclei were stained with 10 μg/mL Hoechst 33342, and cells were washed with PBS three times. Cells were imaged live with DeltaVision Deconvolution microscopy^10.

[6] = tested on: TVN of P. falciparum infected ghosts; assay: Visualization of tubovesicular network by BODIPY-Texas Red C5 ceramide staining; assay type: cell-based, Plasmodium falciparum; details: 10 μM in erythrocyte cytoplasm
Protocol: To visualize TVN membranes, erythrocytes or ghosts infected with indicated P. falciparum strain were washed free of serum and stained with 2.5 μM BODIPY-Texas Red C5 ceramide (N-((4-(4,4-difluoro-5-(2-thienyl)-4-bora-3a,4a-diaza-s-indacene-3-yl)phenoxy)acetyl)sphingosine, Invitrogen) for 15 min at 37° C. Nuclei were stained with 10 μg/mL Hoechst 33342. The cells were washed in RPMI 1640 three times and viewed live by DeltaVision Deconvolution microscopy as described^9.

[7] = tested on: P. falciparum 3D7 infected ghosts; assay: Indirect immunofluorescence assay of parasite protein export in infected ghosts; assay type: cell-based, Plasmodium falciparum; details: 10 μM in erythrocyte cytoplasm
Protocol: Indirect immunofluorescence assay was conducted as described^27. Ghosts that were infected with 3D7 were probed with antibodies to HRPII (Santa Cruz) and MSP1 (MR4) and appropriate secondary antibodies conjugated to FITC or rhodamine. Nuclei were stained with 10 μg/mL Hoechst 33342. Images were captured using DeltaVision Deconvolution microscopy as described^10.

P. falciparum = assay: GST-fusions loaded into resealed erythrocyte ghosts, then infection by Plasmodium falciparum; assay type: cell-based
Text: Erythrocytes were loaded with GST cargo and resealed according to previous protocols^15. Schizonts were percoll-purified to >95% purity and mixed with loaded ghosts at 2% parasitemia. Numbers of rings, trophozoites and schizonts were enumerated by a counter who was blinded to sample identity. Parasite morphology was monitored for any differences. Images of blood smears were taken by light microscopy with a Zeiss Axioskop upright microscope and Nuance spectral camera/un-mixing system (Cambridge Research and Instrumentation).

[8] = 50 μM in resealed erythrocyte ghosts

Compound | reversibility of effects on parasite growth upon washing out drug ([1]; 5 μM PPMP 24 h, parent line and transgenic clones) | parasite stage after 24 incubation ([1]; 5 uM PPMP, 3D7 and both PFD0495c-GFP clones) | PFD0495c transcript level compared to vehicle control [2] | PFC0435w transcriptional change (down regulated) [3] | PFD0495c transcriptional change (upregulated) [3] | concentrations inhibiting 50% and 90% parasite growth [4] | internalization of FM4-64 via TVN tubules [5] | effect on tubular-TVN development [6] | effect on parasite protein export [7] | effect on invasion (measured as ring formation) (P. falciparum; [8]) | effect on trophozoite growth (P. falciparum; [8]) | parasitemia on Day 3 (P. falciparum; ghosts loaded with 10 μM)
CCCCCCCCCCCCCCCC(=O)N[C@H](CN1CCOCC1)[C@H](O)c1ccccc1 (racemic) [PPMP, dl-threo-1-phenyl-2-palmitoyl-3-morpholino-1-propanol] | completely reversible | remained at the trophozoite stage | significantly up-regulated | ~4 fold | ~3 fold | low micromolar | blocked |  |  |  |  | 
GST-PFD0495cCterm: recombinant form of the C-terminal region of PFD0495c (amino acids 795 to 833) fused to glutathione S-transferase (DLDIDDTLKFQHDQEFLNYFKRYQDFNNQLFDSFRSDDR; also: fused to glutathione S-transferase) |  |  |  |  |  |  |  | disrupted | no deleterious effect | no significant effect | inhibitory | 6-7%
